# Patent US20130072527A1, “METHODS OF USING SUSTAINED RELEASE AMINOPYRIDINE COMPOSITIONS” (Acorda Therapeutics, Inc., priority 2008, published 2013)
# Read-outs that look alike come from different tables or passages of the source.
# Columns and labels:
# [1] = Raoof et al., 1997, cited from earlier work
# [2] = Rat i.v. and p.o. pharmacokinetics 2 mg/kg (M 2001-03); details: for Vdss: single p.o. dose 2 mg/kg; for bioavailability: rat, plasma, oral, 2 mg/kg
# [3] = Single- and repeated-dose toxicity studies; format: in vivo; details: orally administered; most often
# Protocol: Toxicology. In single- and repeated-dose toxicity studies, the dosing regimen greatly affected the rate of mortality and incidence of clinical signs in all species studied (with the possible exception of the mouse). In general, higher mortality rates and greater incidences of adverse clinical signs were noted when 4-aminopyridine was administered in a single large dose as compared to when the same total dose was given as two, three, or four equally divided sub-doses. Toxic responses to orally administered 4-aminopyridine were rapid in onset, most often occurring within the first 2 hours post-dose.
# These clinical signs were not unexpected and represent exaggerated pharmacology of 4-aminopyridine.
# [4] = test system: chronically injured spinal cord; details: (941 ng/mL); Shi et al., 1997; cited from earlier work
# [5] = test system: normal adult myelinated axons; details: Shi and Blight, 1997, cited from earlier work
# [6] = test system: patients with multiple sclerosis; test: Phase 3 study MS-F204: other measures (MSWS-12, SGI, CGI, Ashworth score); format: in vivo, human
# Description: (§1) The period of efficacy evaluation (visits 2-6) included 8 weeks of twice daily treatment. An additional week was incorporated to allow pharmacodynamic evaluation at Visit 7, which was not part of the primary endpoint. (See FIG. 1 for study design). In particular, this study is a double-blind, placebo-controlled, parallel group, 13-week study (one week post screening, two weeks of single-blind placebo run-in, eight weeks of double-blind treatment, and two weeks of follow-up) in patients with multiple sclerosis. […] One of the goals of this study is to confirm the primary outcome measure in a second prospective study, and equal randomization is the most efficient way to test this outcome. […] In order to ensure at least 184 patients complete the study, approximately 100 patients were randomized to each group.
# Other measures. A number of other measures, not powered for statistical comparison, were included for integrated analyses across studies: MSWS-12, SGI, CGI, Ashworth score.
# Spasticity may be assessed in addition to walking speed and leg strength. When assessed, spasticity is evaluated at the screening visit and each subsequent visit using the Ashworth Spasticity Score. Preferably, the evaluation is prior to the LEMMT and includes evaluation of six lower extremity muscle groups; knee flexors, knee extensors and hip adductors on both the right and left side of the body. […]
# [7] = Single-dose pharmacokinetics in healthy volunteers; details: administered orally
# [8] = Oral administration of non-sustained release 4-aminopyridine in animals
# [9] = Plasma protein binding of fampridine
# [10] = 14C-4-aminopyridine single oral dose in rats (HWI 6379-101); details: for tissue-to-blood ratio: rat, oral dose; for AUC / Tmax / t1/2: rats, 1 mg/kg single oral
# Protocol: Studies were performed in rats and dogs using ^14C-labeled 4-aminopyridine (1 mg/kg) given as a single oral gavage dose in solution.
# In a single-dose study, rats were administered ^14C-labeled 4-aminopyridine (1 mg/kg) p.o. Three animals per time point were sacrificed 1, 3, 8, and 24 hours post-dose. Blood was collected and tissues were excised for determination of radioactivity.
# [11] = test system: patients with multiple sclerosis; test: Phase 3 study MS-F204: Timed 25 Foot Walk (Timed Walk Response); format: in vivo, human
# [12] = test system: patients with multiple sclerosis; test: Phase 3 study MS-F204: leg strength (LEMMT); format: in vivo, human
# Description: as §1
# Secondary Outcome. The prospectively defined secondary outcome was leg strength, measured by Lower Extremity Manual Muscle Test (LEMMT) in 8 muscle groups, comparing the treated Timed Walk Responders and Timed Walk Non-Responders with placebo-treated patients.
# […] (p-values compared to placebo). […] (Analyzed by t-tests of the least-squares means using the mean square error via an ANOVA model with effects for responder analysis group and center.)
# [13] = In situ absorption study (stomach, small intestine); format: in vivo
# Description: Absorption. 4-Aminopyridine is rapidly absorbed following oral administration.
# [14] = 14C-4-aminopyridine single oral dose in dogs (HWI 6379-102); format: in vivo; details: for AUC / Tmax / t1/2: dogs, 1 mg/kg single oral
# Description: In both species, 14C 4-aminopyridine was rapidly absorbed.
# [15] = one hour post-dose, 1 mg/kg p.o.
compound,measurement,setting,value
Nc1ccncc1 [4-aminopyridine],"regional apparent permeability coefficient (papp×10^−6, cm/sec)",[1]; large intestine,2.9 ×10^−6 cm/sec
same,"regional apparent permeability coefficient (papp×10^−6, cm/sec)",[1]; upper small intestine,22.7 ×10^−6 cm/sec
same,Vdss,[2]; female rats,947.5 mL
same,bioavailability,[2]; female,~55%
same,Vdss,[2]; male rats,1094.4 mL
same,bioavailability,[2]; male,~66.5%
same,Vdss difference between males and females adjusted for body weight,"[2]; rats, 2 mg/kg p.o.",2%
same,Vdss lower in females than in males,"[2]; rats, 2 mg/kg p.o., not statistically significant",13%
same,peak plasma concentrations lower in females than in males,"[2]; rats, oral administration",38%
same,onset of toxic responses post-dose,[3],≤ 2 h
same,most effective concentration,[4],about 10 μM
same,concentration below which the action potential shows little or no sensitivity,[5]; (9.4 μg/mL),below 100 μM
same,concentration causing gradual depolarization of the axon resting potential,[5]; (94.1 μg/mL),above 1 mM
same,"MSWS-12 score, SGI, and CGI",[6]; among Timed Walk Responders but not Timed Walk Non-Responders,improvement
same,Ashworth Score compared to the placebo treated group,[6]; significant in an unplanned analysis,improvement
same,absorption from the gastrointestinal tract,[7],completely absorbed
same,time of peak plasma concentrations after dosing,[8],≤ 1 h
same,fraction unbound,[9],0.97 to 0.99
same,elimination half-life,[10]; blood,1.21 h
same,elimination half-life,[10]; cerebellum,1.24 h
same,elimination half-life,[10]; cerebrum,1.63 h
same,Timed Walk response rate,"[11]; 10 mg b.i.d., with concomitant interferons, natalizumab, or glatiramer acetate (n=70)",42.9%
same,Timed Walk response rate,"[11]; 10 mg b.i.d., without concomitant immunomodulators (n=49)",42.9%
same,improvement in walking speed from baseline,"[11]; Timed Walk Responders, throughout the treatment period",approximately 25%
same,proportion of MS patients with consistently improved walking speed (Timed Walk Response),"[11]; eight weeks of treatment, 10 mg b.i.d.",42%
same,leg strength (LEMMT) versus placebo treated or Timed Walk Responder groups,[12]; Fampridine-treated Timed Walk Non-Responders,not significantly different
same,leg strength (LEMMT) versus placebo-treated patients,"[12]; Timed Walk Responders, p=0.028",significantly improved
same,half-life,[13]; small intestine,0.67 h
same,half-life,[13]; stomach,1.81 h
^14C-4-Aminopyridine,AUC,[14]; females,1920 ± 150 ng·h/mL
same,Tmax,[14]; females,0.8 ± 0.3 h
same,t1/2,[14]; females,1.8 ± 0.04 h
same,AUC,[14]; males,2030 ± 406 ng·h/mL
same,Tmax,[14]; males,1.0 ± 0 h
same,t1/2,[14]; males,2.1 ± 0.14 h
same,Cmax and AUC in the dog relative to the rat,[14]; doses equal on a mg/kg basis (1 mg/kg oral),approximately four-fold higher
same,radioactive dose in the carcass,"[10]; 3 hours post-dose, 1 mg/kg p.o.",15.4%
same,tissue-to-blood ratio,[10]; cerebellum,1.48
same,tissue-to-blood ratio,[10]; cerebrum,3.07
same,dose accounted for in total (radioactivity),[10]; [15],58.3%
same,"radioactivity in blood, % of dose",[10]; [15],0.7%
same,"radioactivity in kidney, % of dose",[10]; [15],1.6%
same,"radioactivity in liver, % of dose",[10]; [15],2.6%
same,radioactivity in the carcass,[10]; [15],51%
same,AUC,[10]; females,506 ± 63.3 ng·h/mL
same,Tmax,[10]; females,0.5 h
same,t1/2,[10]; females,1.4 ± 0.17 h
same,AUC,[10]; males,498 ± 17.6 ng·h/mL
same,Tmax,[10]; males,1.0 h
same,t1/2,[10]; males,1.1 ± 0.04 h
